We go through eleven molecules from patent US20180155344A1, “TRICYCLIC PIPERIDINE COMPOUNDS” (ACTELION PHARMACEUTICALS LTD, priority 2015, published 2018).

Assay [1] relates to cholangiocarcinoma. The settings on record: xenograft model of cholangiocarcinoma; cited from earlier work.
Assay [2] concerns 5HT. The settings on record: 200 mg/kg i.p. qid for 3 days, cited from earlier work.
In assay [3] the test system is 5HT. The following applies: cited from earlier work.
For assay [4], the system named is 5HT. The following applies: phase IIA study, qid; cited from earlier work.
Assay [5] relates to 5HT. The settings on record: mice, cited from earlier work.
Assay [6] has as its target T1, human TPH1 (Homo sapiens, UniProt P17752).
T1 sequence (P17752 1-444): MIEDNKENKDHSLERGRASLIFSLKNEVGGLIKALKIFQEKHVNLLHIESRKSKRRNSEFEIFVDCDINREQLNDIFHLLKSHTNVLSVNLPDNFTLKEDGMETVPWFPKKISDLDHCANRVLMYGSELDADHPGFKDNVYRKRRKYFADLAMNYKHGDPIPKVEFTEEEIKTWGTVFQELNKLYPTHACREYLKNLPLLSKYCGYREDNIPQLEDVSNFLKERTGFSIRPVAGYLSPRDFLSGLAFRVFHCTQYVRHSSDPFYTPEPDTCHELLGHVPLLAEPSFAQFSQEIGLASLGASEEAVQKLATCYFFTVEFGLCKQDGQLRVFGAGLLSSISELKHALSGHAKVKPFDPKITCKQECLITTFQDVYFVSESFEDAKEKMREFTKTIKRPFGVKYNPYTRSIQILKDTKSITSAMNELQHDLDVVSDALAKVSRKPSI
The assay is described as follows: biochemical. Summed up:
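Inhibition is derived from 5-hydroxy-L-tryptophan fluorescence (540 nm emission, 300 nm excitation) after perchloric acid stop, relative to DMSO vehicle. Recombinant full-length human enzyme (40-80 nM) reacts with 40 μM tryptophan plus 100 μM methyltetrahydropterin, pH 7.6 Tris/DTT/catalase, 15° C, 60 min.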

For the molecule `N[C@@H](Cc1ccc(Cl)cc1)C(=O)O` (racemic) [PCA, p-chlorophenylalanine], in assay [1], the tumor volume result was “dramatic reduction in tumor volume”. Moreover, the “5HT in the brain” value in assay [2] (brain) is on record as about 20 % original. Moreover, the “5HT in the gut” value in assay [2] (gut) is given as about 50 % original. Turning to `COc1cccc(-c2ccc([C@@H](Oc3cc(-c4ccc(C[C@H](N)C(=O)O)cc4)nc(N)n3)C(F)(F)F)cc2)c1` [LX1031, (S)-2-Amino-3-(4-{2-amino-6-[(R)-2,2,2-trifluoro-1-(3′-methoxy-biphenyl-4-yl)-ethoxy]-pyrimidin-4-yl}-phenyl)-propionic acid], the “brain 5HT” value in assay [3] (brain) is “no effect on brain 5HT”. Further, in assay [3] (colon), the “5HT in the colon” value was “only a minor reduction”. Further, the “5HT in the jejunum” value in assay [3] (jejunum) is “lowers 5HT in the jejunum”. Besides, in assay [4], the “blood 5HT” value was “did not affect blood 5HT” and the “urinary 5HIAA reduction” value was “up to 30%”. For the molecule `Nc1nc(OC(c2ccc(-c3cccc(F)c3)cc2)C(F)(F)F)cc(-c2ccc(C[C@H](N)C(=O)O)cc2)n1` (stereo partly drawn) [LP533401], the “brain 5HT concentrations” value in assay [5] (brain) is “without effecting brain concentrations”. For the same molecule, in assay [5] (gut), the “gut 5HT” value is on record as “lower gut 5HT”. In the case of `O=C(COc1ccc2ccccc2c1)N1CCc2nc3cc(C(F)(F)F)ccn3c2C1c1ccc(Cl)nc1` (stereo not drawn) [Example 3.37.2, 1-(1-(6-chloropyridin-3-yl)-7-(trifluoromethyl)-3,4-dihydroimidazo[1,2-a:5,4-c′]dipyridin-2(1H)-yl)-2-(naphthalen-2-yloxy)ethan-1-one], the half-maximal inhibitory concentration (IC50) – broadly, the concentration needed to halve the response being measured – in assay [6] is 57 nM. For the molecule `Cc1ccc(C2c3c(nc4cc(C(F)(F)F)ccn34)CCN2C(=O)COc2nn(C)c(C(F)(F)F)c2Cl)c(F)c1` (stereo not drawn) [Example 3.22.3, 2-((4-chloro-1-methyl-5-(trifluoromethyl)-1H-pyrazol-3-yl)oxy)-1-(1-(2-fluoro-4-methylphenyl)-7-(trifluoromethyl)-3,4-dihydroimidazo[1,2-a:5,4-c′]dipyridin-2(1H)-yl)ethan-1-one], the IC50 in assay [6] amounted to 33 nM.

In assay [6], `COc1ccc(C2c3c(nc4cc(Cl)ccn34)CCN2C(=O)COc2ccc(CN3CCOCC3)cc2Cl)cc1OCCO` (stereo not drawn) [Example 2.13.2, 1-(7-chloro-1-(3-(2-hydroxyethoxy)-4-methoxyphenyl)-3,4-dihydroimidazo[1,2-a:5,4-c′]dipyridin-2(1H)-yl)-2-(2-chloro-4-(morpholinomethyl)phenoxy)ethan-1-one] yielded a concentration for half-maximal inhibition (IC50) of 23 nM. This IC50 and that of the molecule before are within 1.5-fold of each other. Same read-out and setting: under `COc1ccc(C2c3c(nc4ccc(C)cn34)CCN2C(=O)COc2ccc3ccccc3c2)cc1OC` (stereo not drawn) [Example 7.1.2, 1-(1-(3,4-dimethoxyphenyl)-8-methyl-3,4-dihydroimidazo[1,2-a:5,4-c′]dipyridin-2(1H)-yl)-2-(naphthalen-2-yloxy)ethan-1-one] stands 38 nM; under `COc1ccc(C2c3c(nc4ccc(C)cn34)CCN2C(=O)COc2ccc(Cl)cc2Cl)cc1OC` (stereo not drawn) [Example 7.1.1, 2-(2,4-dichlorophenoxy)-1-(1-(3,4-dimethoxyphenyl)-8-methyl-3,4-dihydroimidazo[1,2-a:5,4-c′]dipyridin-2(1H)-yl)ethan-1-one], 89 nM; under `O=C(COc1ccc(N2CCOCC2)nc1Cl)N1CCc2nc3ccccn3c2C1c1ccc(C2CC2)nc1F` (stereo not drawn) [Example 1.13.1, 2-((2-chloro-6-morpholinopyridin-3-yl)oxy)-1-(1-(6-cyclopropyl-2-fluoropyridin-3-yl)-3,4-dihydroimidazo[1,2-a:5,4-c′]dipyridin-2(1H)-yl)ethan-1-one], 8 nM.

In assay [6], `COc1ccc(C2c3c(nc4cc(C(F)(F)F)ccn34)CCN2C(=O)COc2cc(C(F)(F)F)ccc2Cl)cc1OC` (stereo not drawn) [Example 3.1.4] returned a concentration for half-maximal inhibition (IC50) of 202 nM. For `O=C(COc1ccc2ccccc2c1)N1CCc2nc3cc(C(F)(F)F)ccn3c2C1c1ccc(C(F)(F)F)cc1` (stereo not drawn) [Example 3.28.1, 2-(naphthalen-2-yloxy)-1-(7-(trifluoromethyl)-1-(4-(trifluoromethyl)phenyl)-3,4-dihydroimidazo[1,2-a:5,4-c′]dipyridin-2(1H)-yl)ethan-1-one], half-maximal inhibition in assay [6] (IC50) required 154 nM.
